From US11998619B2, “Compound, antiinflammatory drug comprising the compound and cyclooxygenase-2 inhibitor comprising the compound” (priority 2018, dated 2024) come the findings set out here.

The test system of assay [1] is MCAO-R stroke animal model. Description: Cerebral infarction in MCAO-R stroke animal model (TTC staining). In kind it is in vivo, Sprague Dawley (SD) rats. Conditions: 24 hours after reperfusion; FIG. 5B.
Assay [2] concerns COX-2. Description: Immunofluorescence of COX-2 in LPS-treated cells. To be noted: FIG. 3.
Description: Anti-inflammatory properties were evaluated based on in vitro experiments. Specifically, cells were treated with lipopolysaccharide (LPS) as an inflammation-inducing substance, thereby to induce an inflammatory reaction. […] Then, immunofluorescence images thereof were taken to identify COX-2 inhibitory ability thereof in the cells.
The green fluorescence indicates the presence of COX-2 which is induced by an inflammatory reaction in cells via treatment with LPS.
The subject of another assay is cyclooxygenase-2 (COX-2). Description: Western blot of COX-2 in tissue at the cerebral infarction site, MCAO-R model. In kind it is in vivo, Sprague Dawley (SD) rats. To be noted: FIG. 5C. (In general: Immunoblotting shows a protein as a band on a membrane.)
In assay [3] the test system is COX-2. Description: Western blotting of COX-2 expression after LPS treatment. The assay is classed as cell-based. To be noted: Western blot, FIG. 4.

Take `O=C(O)c1cc(-c2ccc(F)cc2F)ccc1O` [diflunisal]: the “inhibition of cerebral infarction” value in assay [1] is reported as “significantly inhibit the cerebral infarction”. In addition, in the assay on COX-2 [2], the “COX-2 inhibitory ability (green fluorescence, COX-2 positive cells)” value is given as “slightly lower than that in cells (LPS) treated with only LPS”. In the assay with cyclooxygenase-2 (COX-2), the “inhibition of COX-2 protein amount at cerebral infarction site” value is “exhibit inhibition of COX-2 activity”. In addition, the “COX-2 expression inhibition (COX-2 band)” value in the assay on COX-2 [3] is “do not achieve COX-2 inhibition effect”.

With `CC1=C(CC(=O)O)c2cc(F)ccc2/C1=C\c1ccc([S+](C)[O-])cc1` (stereo not shown) [sulindac], the “COX-2 inhibitory ability (green fluorescence, COX-2 positive cells)” value with COX-2 [2] is “excellent COX-2 inhibition ability”. In addition, the “COX-2 expression inhibition (COX-2 band)” value in the assay with COX-2 [3] is given as “has COX-2 inhibition ability”.

As to `O=C(O)CCC(=O)c1ccc(-c2ccccc2)cc1` [fenbufen], the “COX-2 expression inhibition (COX-2 band)” value in the assay with COX-2 [3] was “do not achieve COX-2 inhibition effect”.
